In patent US12391683B2, “Therapeutic compounds and methods” (Actio Biosciences, Inc., priority 2022, dated 2025):
Where “and” joins values, the source holds several entries; their conditions need not be identical. Equal values may be shown once.

Assays:
[1] = system: Hepatocytes; assay: Hepatocytes predicted clearance, rat
[2] = system: Hepatocytes; assay: Hepatocytes predicted clearance, human
[3] = biological target: recombinant human CYP3A4 enzyme (Homo sapiens, UniProt P08684); assay: CYP3A4 incubation assay; assay type: in vitro ADME; parameters: Metabolic Stability in Recombinant Human CYP3A4 + NADPH (% remaining after 25 min): dose or concentration left out as unconfirmed
Procedure: Example 24. CYP3A4 Incubation Assay
Compounds (final concentration […]) were incubated in 100 mM phosphate buffer containing 100 pmol/mL recombinant human CYP3A4 enzyme for 0, 5, 10, 15 and 25 minutes.
Testosterone was used as positive control. Reaction was initiated by the addition of NADPH (final concentration […]) and carried out at 37° C. The reaction was stopped by the addition of 4 volumes of cold acetonitrile (with 100 nM alprazolam, 200 nM labetalol, 200 nM imipramine and 2 μM ketoprofen as internal standards). Samples were centrifuged at 3,220 g for 40 minutes to precipitate protein. 70 μL supernatant was transferred to the analysis plate containing 110 μL of acetonitrile for LC-MS/MS analysis.
The following table indicates the percentage remaining for the indicated examples after incubation with recombinant Human CYP3A4 after 25 minutes under the same conditions as described for Example […].

[4] = biological target: Human TRPV4 (Homo sapiens, UniProt Q9HBA0); assay: TRPV4 calcium flux assay (FLIPR, antagonist mode); assay type: cell-based; parameters: HiBiT (inferred from the expression read-out); host or cells: HEK293T; conditions: HEK293T cells transfected with hTRPV4; antagonist mode vs EC80 of TRPV4 agonist; average of at least 3 separate experiments; read-out: Human TRPV4 Ca2+ Assay IC50
Procedure: Example 23. TRPV4 Calcium Assay Methods
Human embryonic kidney 293T (HEK293T/293T) cells are cultured in complete media (Dulbecco's Modified Eagle Medium (DMEM), containing 10% fetal bovine serum (FBS) and 1× penicillin-streptomycin) in a T-75 tissue culture flask. At 90% confluency, cells are detached using TrypLE™ Express cell dissociation buffer. TrypLE™ Express buffer is neutralized by adding culture media in excess. Cells are gently triturated and counted using trypan blue in a Countess 3 automated cell counter. Cells are transferred to a 50 mL conical tube and spun down at 1000 rotations per minute (RPM) for five minutes in a benchtop centrifuge. Media containing detaching enzyme is aspirated off the pellet, followed by resuspension to the desired concentration of 2×10^6 cells per mL in complete DMEM.
Transfection preparations were scaled using a combination of 6 μg of TRPV4 wild-type or mutant plasmid DNA, 36 μL of Fugene6 transfection reagent, and 1000 μL of OptiMEM media for every 2×10^6 cells needed. The transfection mix is left to incubate for 20 minutes at room temperature. Total seeding mixture (1000 μL 2×10^6 cells, 1000 μL transfection mix previously described, and 1000 μL complete DMEM) for one transfection is combined into a 15 mL conical tube. The cells and transfection plasmid are mixed thoroughly and dispensed into a reservoir. This is plated at 25 μL per well in a black 384, black-well, clear-bottom, tissue-culture treated plate. This yields approximately 16,000 cells per well. Plasmid DNA constructs were designed by Actio Biosciences in conjunction with Genscript, and generated by Genscript, for all hTRPV4 wild-type and hTRPV4 P/LP (ClinVar) mutations (G78W, P82S, T891, P97R, R186Q, R232C, R232P, R237G, R237Q, R237 L, R269C, R269H, R269S, G270V, R271P, F273 L, K276E, E278K, G280S, Y281S, R315G, R315W, R316C, R316H, R316 L, R316S, I331F, D333G, S403T, K403T, K407E, S542P, S542Y, L543R, Y591N, R594C, R594H, R594S, G600E, Y602C, R616Q, F617 L, L618P, V6201, A716S, A716T, L735R, T740I, R775K, W785R, E797D, E797K, P799A, P799R, P799S, P799 L, G800D, K801E, P827H, F471del, N797del). The remaining cells are plated in the same manner, in a 384, white-well, clear-bottom, tissue-culture treated plate for expression and relative cell number determination. Plates are placed in the incubator at 37° C. overnight.
Compounds were brought to 10 mM in DMSO. DMSO concentration was kept constant throughout the dilution of any compound. DMSO negative control and concentration-response curves were nanoliter-spotted via PICO8 automated dispenser at 5× test concentration into a 384w clear polypropylene plate containing 1×HBSS+20 mM HEPES buffer. A predetermined concentration equivalent to the EC80 of TRPV4 agonist on hTRPV4 was prepared at 6× in 1×HBSS+20 mM HEPES and loaded into a separate 384-well v-bottom polypropylene plate.
Approximately 18 hours post-transfection, the cell plates were removed from the incubator and equal volume (25 uL) Calcium 6 dye was gently added. Calcium 6 dye containing probenecid (final 5 mM) was prepared per manufacturer's instructions. Cell plate was returned to the incubator for 1 hour, at 37° C.
FLIPR Penta was programmed to add compound using the following settings • Pipettor Head=384 • Read Mode 1 Excitation Wavelength=470_495 • Read Mode 1 Emission Wavelength=515_575 • Read Mode 1 Exposure=0.1000 • Read Mode 1 Gain=6.50 • Read Mode 1 Excitation Intensity=20 • Volume of addition=12.5 μL • Height=40 μL • Speed=15 μL/second
Raw data was exported and analyzed for maximum signal (RFU) after agonist addition—the average baseline (RFU) in the first 15 seconds per well. Data was plotted in GraphPad Prism to determine EC50 or IC50 of the molecules.

[5] = system: Hepatocytes; assay: Hepatocytes predicted clearance, mouse
[6] = system: Hepatocytes; assay: Hepatocytes predicted clearance, dog
[7] = system: Hepatocytes; assay: Hepatocytes predicted clearance, cyno
[8] = human clinical trials, background statement; cited from earlier work
[9] = 100 pmol/mL recombinant human CYP3A4, 37° C., 0-25 min

Sequence of Human TRPV4 (Q9HBA0 whole entry): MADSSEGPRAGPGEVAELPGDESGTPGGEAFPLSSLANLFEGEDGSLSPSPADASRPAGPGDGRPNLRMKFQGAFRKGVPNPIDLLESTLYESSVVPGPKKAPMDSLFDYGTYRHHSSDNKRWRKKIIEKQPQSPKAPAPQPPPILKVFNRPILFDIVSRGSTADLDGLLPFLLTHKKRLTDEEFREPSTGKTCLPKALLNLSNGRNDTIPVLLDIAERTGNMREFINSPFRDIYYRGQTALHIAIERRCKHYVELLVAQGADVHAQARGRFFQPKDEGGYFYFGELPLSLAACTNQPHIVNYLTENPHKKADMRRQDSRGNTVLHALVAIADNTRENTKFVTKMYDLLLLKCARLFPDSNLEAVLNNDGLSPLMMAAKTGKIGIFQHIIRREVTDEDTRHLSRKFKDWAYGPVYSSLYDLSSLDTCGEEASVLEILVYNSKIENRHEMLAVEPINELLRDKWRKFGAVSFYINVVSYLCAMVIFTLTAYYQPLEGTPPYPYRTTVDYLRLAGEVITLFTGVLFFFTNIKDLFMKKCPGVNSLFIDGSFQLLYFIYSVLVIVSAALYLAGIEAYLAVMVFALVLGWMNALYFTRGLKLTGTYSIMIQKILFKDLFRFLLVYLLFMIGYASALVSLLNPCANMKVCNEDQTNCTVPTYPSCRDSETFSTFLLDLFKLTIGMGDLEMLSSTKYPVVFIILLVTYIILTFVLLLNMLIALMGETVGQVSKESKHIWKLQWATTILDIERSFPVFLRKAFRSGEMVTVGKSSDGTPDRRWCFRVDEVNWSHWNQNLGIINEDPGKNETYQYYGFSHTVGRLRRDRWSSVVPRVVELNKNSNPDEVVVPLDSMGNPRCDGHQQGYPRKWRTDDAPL
Sequence of recombinant human CYP3A4 enzyme (P08684 whole entry): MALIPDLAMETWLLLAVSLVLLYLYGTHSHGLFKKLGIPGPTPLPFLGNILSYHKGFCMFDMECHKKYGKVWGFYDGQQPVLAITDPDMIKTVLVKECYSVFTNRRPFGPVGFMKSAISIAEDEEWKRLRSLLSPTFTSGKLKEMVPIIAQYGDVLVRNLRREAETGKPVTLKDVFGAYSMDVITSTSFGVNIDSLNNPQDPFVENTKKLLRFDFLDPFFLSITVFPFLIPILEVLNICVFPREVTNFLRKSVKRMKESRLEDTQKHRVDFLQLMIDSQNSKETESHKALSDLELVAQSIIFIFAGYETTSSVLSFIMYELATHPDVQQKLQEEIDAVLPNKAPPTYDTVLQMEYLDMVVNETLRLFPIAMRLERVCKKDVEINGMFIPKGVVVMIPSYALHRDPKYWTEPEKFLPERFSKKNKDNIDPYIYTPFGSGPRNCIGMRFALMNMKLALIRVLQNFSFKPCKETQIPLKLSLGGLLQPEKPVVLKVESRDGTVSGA

Structure (SMILES)	Hepatocytes predicted clearance in rat [1]	Hepatocytes predicted clearance in human [2]	CYP3A4 Clint ([3]; human, recombinant enzyme)	IC50 [4]	Hepatocytes predicted clearance in mouse [5]	Hepatocytes predicted clearance in dog [6]	Hepatocytes predicted clearance in cyno [7]	CYP3A4 Clint [3, 9]	Metabolic Stability in Recombinant Human CYP3A4 + NADPH (% remaining after 25 min) ([3]; recombinant Human CYP3A4 + NADPH)	efficacy across several human disease indications [8]	Metabolic Stability in Recombinant Human CYP3A4 + NADPH (% remaining after 25 min) ([3]; human, recombinant enzyme)
CC(C)(O)c1cnc(N2C[C@@]3(CC[C@H]4C[C@@]4(Cn4cnc5ccc(C#N)cc54)C3)OC2=O)cn1 (single isomer, unassigned) [Example 8]	54.5 mL/min/kg	< 0.17 mL/min/kg	<0.07, <0.07 μL/min/pmol CYP450	391 nM	281.2 mL/min/kg	30 mL/min/kg	37.5 mL/min/kg	–	–	–	–
C=C1CC[C@@]2(CN(c3cnc(C(C)(C)O)cn3)C(=O)O2)C[C@@]1(C)Cn1cnc2ccc(C#N)cc21 (single isomer, unassigned) [Example 16]	69.3 mL/min/kg	5.5 mL/min/kg	–	2130 nM	90.7 mL/min/kg	4 mL/min/kg	22.7 mL/min/kg	0.20 μL/min/pmol CYP450 and 0.19 μL/min/pmol CYP450	–	–	–
CC1(C)C[C@](C)(Cn2cnc3ccc(C#N)cc32)C[C@@]2(CN(c3cnc(C(C)(C)O)cn3)C(=O)O2)C1 (single isomer, unassigned) [Example 17]	39.3 mL/min/kg	1.5 mL/min/kg	–	5740 nM	119 mL/min/kg	1.3 mL/min/kg	43.7 mL/min/kg	0.07, <0.07 μL/min/pmol CYP450	–	–	–
CC(C)(O)c1cnc(N2C[C@@]3(CCC(F)(F)[C@H](Cn4cnc5ccc(C#N)cc54)C3)OC2=O)cn1 [Example 2, 1-(((5S,7S)-8,8-Difluoro-3-(5-(2-hydroxypropan-2-yl)pyrazin-2-yl)-2-oxo-1-oxa-3-azaspiro[4.5]decan-7-yl)methyl)-1H-benzo[d]imidazole-6-carbonitrile]	< 0.17 mL/min/kg	< 0.17 mL/min/kg	–	217 nM	31 mL/min/kg	1.3 mL/min/kg	34.8 mL/min/kg	0.08 μL/min/pmol CYP450 and < 0.07 μL/min/pmol CYP450	–	–	–
CC(C)(O)c1cnc(N2C[C@@]3(CCC(F)(F)[C@](C)(Cn4cnc5ccc(C#N)cc54)C3)OC2=O)cn1 [Example 15, 1-(((5S,7S)-8,8-Difluoro-3-(5-(2-hydroxypropan-2-yl)pyrazin-2-yl)-7-methyl-2-oxo-1-oxa-3-azaspiro[4.5]decan-7-yl)methyl)-1H-benzo[d]imidazole-6-carbonitrile]	4.5 mL/min/kg	3.83 mL/min/kg	–	8 nM	27.8 mL/min/kg	4.33 mL/min/kg	28.3 mL/min/kg	0.09 μL/min/pmol CYP450 and < 0.07 μL/min/pmol CYP450	91.3%	–	–
CC(C)(O)c1cnc(N2C[C@@]3(CCC[C@](C)(Cn4cnc5ccc(C#N)cc54)C3)OC2=O)cn1 [GSK2798745, reference compound]	20.7 mL/min/kg	< 0.17 mL/min/kg	0.18 μL/min/pmol CYP450	10 nM	44.3 mL/min/kg	7.17 mL/min/kg	21.5 mL/min/kg	–	–	failed to show efficacy	69.6%
